Reference: patent publication US7786071B2 (priority 2003, dated 2010)
Several values for one entry are separate records, joined by “and”; a condition that tells them apart may be missing. Equal values may be shown once.

Assays:
rePON1 (G3H8) = target: T1, rePON1 (G3H8) (Oryctolagus cuniculus, UniProt P27170, A301G/A320V/A67S/G19R/H177S/I126T/I187A/K138S/K151R/K297E/K93E/L143V/L7P/M130L/M341L/P82S/S101G/V343I); test: biochemical
T1 construct: leaving the intact, 355 amino acids, PON1 protein without any additions; made in house; host or cells: E. coli Origami B (DE3), truncated pET32 vector without Trx, His and S tags
T1 sequence (P27170 with tags, fused parts or gaps with the stated changes): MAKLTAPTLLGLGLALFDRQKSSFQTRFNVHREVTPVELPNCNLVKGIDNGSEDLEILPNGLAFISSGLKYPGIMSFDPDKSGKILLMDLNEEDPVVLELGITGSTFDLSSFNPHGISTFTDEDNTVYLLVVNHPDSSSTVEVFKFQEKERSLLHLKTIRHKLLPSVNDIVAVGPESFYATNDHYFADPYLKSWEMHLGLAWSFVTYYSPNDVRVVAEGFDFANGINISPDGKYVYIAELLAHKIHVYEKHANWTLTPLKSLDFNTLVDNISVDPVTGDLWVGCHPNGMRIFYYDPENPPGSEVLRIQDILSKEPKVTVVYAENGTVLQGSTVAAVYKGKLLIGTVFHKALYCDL

[1] = target: T2, HuPON1 purified from serum (Homo sapiens, UniProt P27169); conditions: read-out: Ki for 2-hydroxyquinoline inhibition of phenyl acetate hydrolysis by HuPON1 purified from serum; cited from earlier work
T2 construct: measured for hydrolysis of phenylacetate by serum huPON1; host or cells: human serum
T2 sequence (P27169 whole entry): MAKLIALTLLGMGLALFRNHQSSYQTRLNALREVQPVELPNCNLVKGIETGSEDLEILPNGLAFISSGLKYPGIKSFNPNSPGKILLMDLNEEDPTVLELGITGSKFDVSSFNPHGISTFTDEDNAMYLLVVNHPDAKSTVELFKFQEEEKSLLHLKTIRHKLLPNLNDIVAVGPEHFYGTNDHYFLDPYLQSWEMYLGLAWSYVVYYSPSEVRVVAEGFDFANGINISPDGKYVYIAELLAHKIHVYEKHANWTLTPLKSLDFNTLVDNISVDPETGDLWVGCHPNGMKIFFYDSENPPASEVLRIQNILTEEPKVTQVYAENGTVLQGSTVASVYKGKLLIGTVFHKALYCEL

Oc1ccc2ccccc2n1 [2-hydroxyquinoline]
Ki (rePON1 (G3H8); Inhibition constant (Ki)): 11 µM and 3 µM and 4.2 µM | Ki (rePON1 (G3H8); inhibition constants for phenyl-acetate, paraxon and L-HcyT hydrolysis): 3 to 11 µM | Ki [1]: ~5 µM
